Experimental data as given in patent US7763617B2, “Pyrazolopyridine-4-yl pyridazinone derivatives and addition salts thereof, and PDE inhibitors comprising the same derivatives or salts as active ingredient” (Kyorin Pharmaceutical Co., Ltd., priority 2005, dated 2010).
Like-named read-outs stand apart in the source and are kept apart here.

Key:
[1] = target: T1, PDE3A catalytic domain (PDE3Acat) (Homo sapiens, UniProt Q14432); test: Inhibition of phosphodiesterase activity, [3H]-cAMP hydrolysis, recombinant PDE3Acat; format: biochemical; settings: cAMP 2 μmol/L
T1 construct: cDNA fragments of PDE3A catalytic domain (indicated as “cat,” hereinafter); made in house; host or cells: Sf9 insect cells (baculovirus, Bac-to-Bac)
Method: (§1) RT-PCR was performed to isolate cDNA fragments of PDE3A catalytic domain (indicated as “cat,” hereinafter), PDE4Bcat, PDE5Acat and PDE10A1 from human RNA. Using Gateway system (Invitrogen) and Bac-to-Bac (registered trademark) Baculovirus Expression system (Invitrogen), the isolated cDNA fragments were transfected into Sf9 insect cells for expression of the PDE proteins. The recombinant PDE3Acat, PDE4Bcat, PDE5Acat and PDE10A1 proteins were isolated from culture supernatant or cell extracts of Sf9 cells expressed high levels of these proteins by ion-exchange chromatography and used for the following experiments.
(§2) 4 mmol/L solution of each test compound was serially diluted 4-fold with 15% DMSO solution to prepare the solutions with concentrations of 15 nmol/L to 4 mmol/L (final concentrations=1.5 nmol/L-400 μmol/L). 10 μL of each test compound solution was added to each well of 96 plate with 10 μL of [^3H]-cAMP or [^3H]-cGMP solution, diluted with a buffer (40 mmol/L Tris-HCl (pH 7.4), 10 mmol/L MgCl2) to the concentration shown in Table 20 and 40 μL of each of the human recombinant PDE proteins in units shown in Table 20. The plate was incubated at 30° C. for 20 min, and then at 65° C. for 2 min. Subsequently, 25 μL of 1 mg/mL 5′-nucleotidase (Crotalus atrox venom, Sigma) was added to each well and the plate was incubated at 30° C. for 10 min. 200 μL of Dowex solution (300 mg/mL Dowex 1×8-400 (Sigma Aldrich), 33% ethanol) was then added to each well and the plate was shaken at 4° C. for 20 min. Subsequently, 200 μL of MicroScint 20 (Packard) was added to each well and the radioactivity of each sample was measured by a scintillation counter (Topcount, Packard) IC50 was calculated by GraphPad Prism v3.03 (GraphPad Software).

PDE4Bcat = target: T2, PDE4Bcat (Homo sapiens, UniProt Q07343); test: Inhibition of phosphodiesterase activity, [3H]-cAMP hydrolysis, recombinant PDE4Bcat; format: biochemical; settings: cAMP 2 μmol/L, read-out: IC50(μmol/L) PDE4
T2 construct: catalytic domain (indicated as “cat,” hereinafter), PDE4Bcat; made in house; host or cells: Sf9 insect cells (baculovirus, Bac-to-Bac)
Method: as §1, §2

PDE5Acat = PDE5Acat (Homo sapiens, UniProt O76074); test: Inhibition of phosphodiesterase activity, [3H]-cGMP hydrolysis, recombinant PDE5Acat; format: biochemical; settings: cGMP 2 μmol/L, read-out: IC50(μmol/L) PDE5
Method: as §1, §2

PDE10A1 = target: T3, PDE10A1 (Homo sapiens, UniProt Q9Y233); test: Inhibition of phosphodiesterase activity, [3H]-cAMP hydrolysis, recombinant PDE10A1; format: biochemical; settings: human recombinant PDE10A1, cAMP 0.2 μmol/L; read-out: IC50(μmol/L) PDE10
T3 construct: made in house; host or cells: Sf9 insect cells (baculovirus, Bac-to-Bac)
Method: as §1, §2

[2] = system: isolated guinea pig tracheal smooth muscles; test: Relaxant effect on histamine-induced contraction of isolated guinea pig tracheal smooth muscles; settings: Cavia porcellus; histamine 10^-5 mol/L contraction, relaxation as % of maximum response to papaverine 10^-4 mol/L; read-out: IC50(μmol/L), concentration required to 50% relaxation
Method: Guinea pigs were exsanguinated and the trachea was immediately isolated and cut into 2 to 3 cartilage ring segments to prepare tracheal ring preparations. The tracheal rings were suspended in 10 mL of Tyrode's solution bubbled with a gaseous mixture of 95% O2+5% CO2 at 37° C. The composition of the Tyrode's solution (mM) was as follows: NaCl 136.9, KCl 2.7, CaCl2 1.8, MgCl2 1.0, NaH2PO4 0.4, NaHCO3 11.9 and Gucose 5.6. The contractile response was measured by an isometric transducer (UM-203, KISHIMOTO) and recorded on a recorder ([…] SERVOCORDER SR6221). After about 1 hour incubation with 1.5 g of resting tention, histamine (10^−5 mol/L) was added to induce the contractile response. After confirming the response, the preparations were washed with Tyrode's solution (10 mL×3). Then indomethacin (10^−5 mol/L) was applied and the preparations were equilibrated for at least 30 min under 1.5 g tension. Subsequently, histamine (10^−5 mol/L) was applied. After the contraction reached a steady state, each compound was added in a cumulative manner (10^−8 mol/L-3×10^−5 mol/L). Each compound was prepared as a 10^−1 mol/L solution in DMSO, which was diluted with distilled water for use. After addition of test compounds, papaverine (10^−4 mol/L) was added to determine the maximum relaxation of the preparation. Relaxant response of test compounds were expressed as a percentage of the maximum response to papaverine. IC50 was defined as a concentration of the compound required to 50% relaxation. DMSO was used as a control.

[3] = system: histamine-induced bronchoconstriction; test: Histamine-induced bronchoconstriction in guinea pigs; format: in vivo, guinea pig; settings: Cavia porcellus, iv, 0.5 min, 30 seconds after administration, histamine 12.5 μg/kg i.v.; for inhibition in vivo at 1 mg/kg: test compound 1 mg/kg i.v.; for inhibition in vivo at 0.1 mg/kg: values in brackets: test compound 0.1 mg/kg, i.v.
Method: Guinea pigs were anesthetized with pentobarbital (30 mg/kg, i.p.). A cannula for IV administeration, a cannula for collecting blood and measurement of blood pressure and a trachea cannula were inserted into the left exterior jugular vein, right interior carotid artery and trachea, respectively. The animals were placed under artificial respiration at 60 times/min and 10 mL/kg/stroke. The airflow through the branch of the tracheal cannula was measured by a bronchospasm transducer (Ugo-Basile) and recorded on a computer via Power Lab (ADInstruments Japan). The animals were immobilized with gallamine (10 mg/kg, i.v.), then administered histamine at 10-minute intervals (12.5 μg/kg, i.v.). […] To examine the inhibitory activity of test compound, the histamine-induced bronchoconstriction was measured after 30 seconds of drug administration. The bronchoconstriction was recorded as the change of the airflow: The results were shown by percentages of the maximum histamine-induced bronchoconstriction. Each test compound was prepared as a 10 mg/mL solution in DMSO. Gallamine was prepared as a 10 mg/mL solution in physiological saline. Histamine was prepared as a 1 mg/mL solution in physiological saline, which was diluted with physiological saline to 62.5 μg/mL for use.

[4] = IC50(μmol/L) PDE3, human recombinant PDE3Acat
[5] = human recombinant PDE3Acat, read-out: IC50(μmol/L) PDE3

T1 sequence (Q14432 674-1093 limits assumed): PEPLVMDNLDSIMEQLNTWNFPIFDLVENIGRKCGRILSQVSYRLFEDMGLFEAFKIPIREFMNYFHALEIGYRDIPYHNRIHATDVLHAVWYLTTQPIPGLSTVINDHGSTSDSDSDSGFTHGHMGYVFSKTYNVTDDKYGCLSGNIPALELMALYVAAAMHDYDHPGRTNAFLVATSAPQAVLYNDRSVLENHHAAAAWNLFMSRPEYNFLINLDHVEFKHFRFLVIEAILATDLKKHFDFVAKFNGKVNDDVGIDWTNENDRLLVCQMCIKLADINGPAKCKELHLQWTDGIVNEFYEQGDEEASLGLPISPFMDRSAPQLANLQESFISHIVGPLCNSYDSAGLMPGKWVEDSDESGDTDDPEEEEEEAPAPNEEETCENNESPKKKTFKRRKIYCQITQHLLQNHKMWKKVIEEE
T3 sequence (Q9Y233 1-779 isoform Q9Y233-1): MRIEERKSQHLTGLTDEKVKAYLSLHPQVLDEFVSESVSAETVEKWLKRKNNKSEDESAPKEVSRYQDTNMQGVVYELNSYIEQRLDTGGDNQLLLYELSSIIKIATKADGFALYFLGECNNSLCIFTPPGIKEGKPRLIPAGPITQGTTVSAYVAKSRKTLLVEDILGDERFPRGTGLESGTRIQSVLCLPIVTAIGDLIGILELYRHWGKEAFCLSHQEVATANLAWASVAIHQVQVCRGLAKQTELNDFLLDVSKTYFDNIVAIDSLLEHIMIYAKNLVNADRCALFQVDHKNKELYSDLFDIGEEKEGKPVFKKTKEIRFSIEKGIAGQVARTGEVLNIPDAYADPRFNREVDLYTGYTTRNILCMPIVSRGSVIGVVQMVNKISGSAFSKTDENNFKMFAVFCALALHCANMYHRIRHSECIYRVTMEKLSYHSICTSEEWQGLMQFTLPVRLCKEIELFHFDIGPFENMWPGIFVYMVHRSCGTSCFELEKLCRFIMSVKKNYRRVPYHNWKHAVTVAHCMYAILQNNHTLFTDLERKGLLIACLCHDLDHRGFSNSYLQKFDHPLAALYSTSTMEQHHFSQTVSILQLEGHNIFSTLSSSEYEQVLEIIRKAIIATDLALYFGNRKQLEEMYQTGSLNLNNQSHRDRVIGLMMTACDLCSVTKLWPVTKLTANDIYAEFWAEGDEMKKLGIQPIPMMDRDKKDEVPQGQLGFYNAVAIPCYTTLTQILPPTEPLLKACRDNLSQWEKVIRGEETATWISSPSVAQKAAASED
T2 sequence (Q07343 330-659 limits assumed): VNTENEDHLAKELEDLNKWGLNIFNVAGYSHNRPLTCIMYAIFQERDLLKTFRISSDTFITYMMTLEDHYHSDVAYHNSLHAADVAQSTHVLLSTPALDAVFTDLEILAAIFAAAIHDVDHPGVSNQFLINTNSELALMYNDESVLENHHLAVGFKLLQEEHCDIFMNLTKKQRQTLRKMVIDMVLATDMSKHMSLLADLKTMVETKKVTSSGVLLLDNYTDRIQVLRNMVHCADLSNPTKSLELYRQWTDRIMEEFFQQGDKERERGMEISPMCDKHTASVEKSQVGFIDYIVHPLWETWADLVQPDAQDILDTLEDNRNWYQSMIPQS

Row | SMILES | IC50 [1, 4] | IC50 (PDE4Bcat) | IC50 (PDE5Acat) | IC50 (PDE10A1) | IC50 [2] | inhibition in vivo at 1 mg/kg [3] | IC50 [1, 5] | inhibition in vivo at 0.1 mg/kg [3]
1 | CCc1cc2c(C3=NNC(=O)CC3C)ccc(OC)n2n1 (centres unmarked) [Example 216] | > 10 µmol/L | 0.1 to 1 µmol/L | > 10 µmol/L | 1 to 10 µmol/L | 0.65 µmol/L | ≥ 90% | – | –
2 | COc1ccc(C2=NN(Cc3cccnc3)C(=O)CC2)c2cc(C(C)C)nn12 [Example 285] | – | 1 to 10 µmol/L | > 10 µmol/L | 1 to 10 µmol/L | – | – | > 10 µmol/L | –
3 | CCc1cc2c(C3=NNC(=O)CC3)cc(Cl)cn2n1 [Example 202] | – | > 10 µmol/L | > 10 µmol/L | 1 to 10 µmol/L | – | ≥ 90% | > 10 µmol/L | –
4 | CCc1cc2c(C3=NNC(=O)CC3C)ccc(OC)n2n1 (single isomer, unassigned; (-)) [Example 316, (−)-6-(2-ethyl-7-methoxy-pyrazolo[1,5-a]pyridine-4-yl)-5-methyl-4,5-dihydro-3-(2H)-pyridazinone] | > 10 µmol/L | < 1 µmol/L | > 10 µmol/L | > 10 µmol/L | 0.676 µmol/L | – | – | –
5 | COc1ccc(-c2ccc(=O)n(Cc3cccnc3)n2)c2cc(C(C)C)nn12 [Example 273] | – | 1 to 10 µmol/L | > 10 µmol/L | 1 to 10 µmol/L | – | – | > 10 µmol/L | –
6 | COc1ccc(C2=NNC(=O)C(C)C2)c2cc(C(C)C)nn12 (centres unmarked) [Example 283] | – | 0.1 to 1 µmol/L | > 10 µmol/L | > 10 µmol/L | – | – | > 10 µmol/L | –
7 | CCc1cc2c(-c3ccc(=O)[nH]n3)ccc(OC)n2n1 [Example 306] | – | 1 to 10 µmol/L | > 10 µmol/L | > 10 µmol/L | – | ≥ 90% | 1 to 10 µmol/L | –
8 | COc1ccc(C2=NNC(=O)CC2C)c2cc(C(F)(F)F)nn12 (single isomer, unassigned; (+)) [Example 317, (+)-6-(7-methoxy-2-trifluoromethyl-pyrazolo[1,5-a]pyridine-4-yl)-5-methyl-4,5-dihydro-3-(2H)-pyridazinone] | – | < 1 µmol/L | > 10 µmol/L | 1 to 10 µmol/L | 0.127 µmol/L | – | 0.1 to 1 µmol/L | ≥ 90%
9 | COc1ccc(-c2cc(C)c(=O)[nH]n2)c2cc(C(C)C)nn12 [Example 278, 6-(7-methoxy-2-isopropyl-pyrazolo[1,5-a]pyridine-4-yl)-4-methyl-3-(2H)-pyridazinone] | – | 0.1 to 1 µmol/L | > 10 µmol/L | > 10 µmol/L | – | – | > 10 µmol/L | –
10 | COc1ccc(-c2ccc(=O)n(Cc3ccccc3)n2)c2cc(C(C)C)nn12 [Example 272] | – | – | – | 0.1 to 1 µmol/L | – | – | – | –
11 | CCc1cc2c(C3=NNC(=O)CC3C)cc(Cl)cn2n1 (single isomer, unassigned; (-)) [Example 314, (−)-6-(6-chloro-2-ethyl-pyrazolo[1,5-a]pyridine-4-yl)-5-methyl-4,5-dihydro-3-(2H)-pyridazinone] | – | 0.1 to 1 µmol/L | > 10 µmol/L | > 10 µmol/L | – | – | > 10 µmol/L | 80 to 90%
12 | COc1ccc(-c2ccc(=O)n(Cc3ccccc3)n2)c2c(C(=O)O)c(C(C)C)nn12 [Example 267, 2-benzyl-6-(3-carboxy-7-methoxy-2-isopropyl-pyrazolo[1,5-a]pyridine-4-yl)-3-(2H)-pyridazinone] | – | 1 to 10 µmol/L | > 10 µmol/L | > 10 µmol/L | – | – | > 10 µmol/L | –
13 | CCc1cc2c(C3=NN(Cc4cccnc4)C(=O)CC3C)cc(Cl)cn2n1 (centres unmarked) [Example 312, 6-(6-chloro-2-ethyl-pyrazolo[1,5-a]pyridine-4-yl)-4,5-dihydro-5-methyl-2-(pyridine-3-ylmethyl)-3-(2H)-pyridazinone] | – | 1 to 10 µmol/L | > 10 µmol/L | > 10 µmol/L | – | – | > 10 µmol/L | –
14 | CCc1cc2c(C3=NNC(=O)CC3C)ccc(OC)n2n1 (single isomer, unassigned; (+)) [Example 315, (+)-6-(2-ethyl-7-methoxy-pyrazolo[1,5-a]pyridine-4-yl)-5-methyl-4,5-dihydro-3-(2H)-pyridazinone] | 1 to 10 µmol/L | 1 to 10 µmol/L | > 10 µmol/L | 1 to 10 µmol/L | – | – | – | ≥ 90%
15 | CCc1cc2c(-c3ccc(=O)[nH]n3)cccn2n1 [Example 304] | – | > 10 µmol/L | > 10 µmol/L | > 10 µmol/L | 0.89 µmol/L | ≥ 90% | 1 to 10 µmol/L | –
16 | COC(=O)c1c(C(C)C)nn2c(OC)ccc(-c3ccc(=O)n(Cc4ccccc4)n3)c12 [Example 266, 2-benzyl-6-(7-methoxy-3-methoxycarbonyl-2-isopropyl-pyrazolo[1,5-a]pyridine-4-yl)-3-(2H)-pyridazinone] | – | 1 to 10 µmol/L | > 10 µmol/L | > 10 µmol/L | – | – | > 10 µmol/L | –
17 | CCc1cc2c(C3=NNC(=O)CC3)ccc(OC)n2n1 [Example 210, 6-(2-ethyl-7-methoxy-pyrazolo[1,5-a]pyridine-4-yl)-4,5-dihydro-3-(2H)-pyridazinone] | – | 1 to 10 µmol/L | > 10 µmol/L | > 10 µmol/L | – | ≥ 90% | > 10 µmol/L | –
18 | COc1ccc(C2=NN(Cc3ccccc3)C(=O)CC2)c2cc(C(C)C)nn12 [Example 284] | – | – | – | 1 to 10 µmol/L | – | – | – | –
19 | CCc1cc2c(C3=NNC(=O)CC3C)ccc([S+](C)[O-])n2n1 (centres unmarked) [Example 249, 6-(2-ethyl-7-methylsulfinyl-pyrazolo[1,5-a]pyridine-4-yl)-4,5-dihydro-5-methyl-3-(2H)-pyridazinone] | – | < 1 µmol/L | – | – | – | – | 1 to 10 µmol/L | ≥ 90%
20 | COc1ccc(C2=NNC(=O)CC2C)c2cc(C(C)C)nn12 (centres unmarked) [Example 282] | – | 0.1 to 1 µmol/L | > 10 µmol/L | 1 to 10 µmol/L | – | ≥ 90% | 1 to 10 µmol/L | –
21 | CCc1cc2c(C3=NNC(=O)CC3C)ccc(NCCO)n2n1 (centres unmarked) [Example 247, 6-[2-ethyl-7-(2-hydroxyethylamino)-pyrazolo[1,5-a]pyridine-4-yl]-4,5-dihydro-5-methyl-3-(2H)-pyridazinone] | – | 1 to 10 µmol/L | – | – | – | – | 1 to 10 µmol/L | 70 to 80%
